pEC50: −log10 of the molar value.
Target: AMPK
Experiment: AMPK activation, enzyme-linked immunosorbent assay
Assay type: biochemical
Details: EC50 for AMPK activation, ELISA
In short: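 Activator screen performed per well-known kit methods.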

Structure (SMILES) | pEC50
N#Cc1ccc(OC2CN(C(=O)c3ccc(C(=O)Nc4ccc(Oc5ccc(F)cc5)nc4)nc3)C2)cc1 [Compound 210, 5-(3-(4-cyanophenoxy)azetidine-1-carbonyl)-N-(6-(4-fluorophenoxy)pyridin-3-yl)picolinamide] | < 5.00
CS(=O)(=O)c1ccc(CN2CCC(NC(=O)c3ccc(C(=O)N4CCC(Oc5ccc(C#N)cc5)CC4)nc3)CC2)cc1 [Compound 214, 6-(4-(4-cyanophenoxy)piperidine-1-carbonyl)-N-(1-(4-(methylsulfonyl)benzyl)piperidin-4-yl)nicotinamide] | < 5.00
COc1ccc(C(=O)C2CCN(C(=O)c3ccc(C(=O)NC4CCN(Cc5ccc(S(C)(=O)=O)cc5)CC4)cn3)CC2)cc1 [Compound 215, 6-(4-(4-methoxybenzoyl)piperidine-1-carbonyl)-N-(1-(4-(methylsulfonyl)benzyl)piperidin-4-yl)nicotinamide] | < 5.00
CS(=O)(=O)Nc1ccc(CN2CCC(NC(=O)c3ccc(C(=O)N4CCC(C(=O)c5ccc(F)cc5F)CC4)nc3)CC2)cc1 [Compound 216, 6-(4-(2,4-difluorobenzoyl)piperidine-1-carbonyl)-N-(1-(4-(methylsulfonamido)benzyl)piperidin-4-yl)nicotinamide] | < 5.00
CS(=O)(=O)Nc1ccc(CN2CCC(NC(=O)c3ccc(C(=O)N4CCC(Oc5ccc(C#N)cc5)CC4)nc3)CC2)cc1 [Compound 217, 6-(4-(4-cyanophenoxy)piperidine-1-carbonyl)-N-(1-(4-(methylsulfonamido)benzyl)piperidin-4-yl)nicotinamide] | < 5.00
CS(=O)(=O)c1ccc(C(=O)C2CCN(C(=O)c3ccc(C(=O)NC4CCN(Cc5ccc(C#N)cc5)CC4)cn3)CC2)cc1 [Compound 221, N-(1-(4-cyanobenzyl)piperidin-4-yl)-6-(4-(4-(methylsulfonyl)benzoyl)piperidine-1-carbonyl)nicotinamide] | 5.30 to 6.00
CS(=O)(=O)c1ccc(C(=O)C2CCN(C(=O)c3ccc(C(=O)NC4CCN(Cc5ccc(F)cc5)CC4)cn3)CC2)cc1 [Compound 222, N-(1-(4-fluorobenzyl)piperidin-4-yl)-6-(4-(4-(methylsulfonyl)benzoyl)piperidine-1-carbonyl)nicotinamide] | 5.30 to 6.00
COc1ccc(CN2CCC(NC(=O)c3ccc(C(=O)N4CCC(C(=O)c5ccc(S(C)(=O)=O)cc5)CC4)nc3)CC2)cc1 [Compound 223, N-(1-(4-methoxybenzyl)piperidin-4-yl)-6-(4-(4-(methylsulfonyl)benzoyl)piperidine-1-carbonyl)nicotinamide] | 5.30 to 6.00
CS(=O)(=O)c1ccc(C(=O)C2CCN(C(=O)c3ccc(C(=O)NC4CCN(Cc5ccc(C#N)cc5)CC4)nc3)CC2)cc1 [Compound 228, N-(1-(4-cyanobenzyl)piperidin-4-yl)-5-(4-(4-(methylsulfonyl)benzoyl)piperidine-1-carbonyl)picolinamide] | > 6.30
CS(=O)(=O)c1ccc(C(=O)C2CCN(C(=O)c3ccc(C(=O)NC4CCN(Cc5ccc(N6CCCC6)cc5)CC4)cn3)CC2)cc1 [Compound 229, 6-(4-(4-(methylsulfonyl)benzoyl)piperidine-1-carbonyl)-N-(1-(4-(pyrrolidin-1-yl)benzyl)piperidin-4-yl)nicotinamide] | 5.30 to 6.00
CS(=O)(=O)c1ccc(OC2CCN(C(=O)c3ccc(C(=O)NC4CCN(Cc5ccc(N6CCCC6)cc5)CC4)cn3)CC2)cc1 [Compound 230, 6-(4-(4-(methylsulfonyl)phenoxy)piperidine-1-carbonyl)-N-(1-(4-(pyrrolidin-1-yl)benzyl)piperidin-4-yl)nicotinamide] | 6.00 to 6.30
CS(=O)(=O)c1ccc(OC2CCN(C(=O)c3ccc(C(=O)Nc4ccc(Oc5ccc(F)cc5)nc4)nc3)CC2)cc1 [Compound 231, N-(6-(4-fluorophenoxy)pyridin-3-yl)-5-(4-(4-(methylsulfonyl)phenoxy)piperidine-1-carbonyl)picolinamide] | > 6.30
CS(=O)(=O)c1ccc(C(=O)C2CCN(C(=O)c3ccc(C(=O)Nc4ccc(Oc5ccc(F)cc5)nc4)nc3)CC2)cc1 [Compound 232, N-(6-(4-fluorophenoxy)pyridin-3-yl)-5-(4-(4-(methylsulfonyl)benzoyl)piperidine-1-carbonyl)picolinamide] | > 6.30
CS(=O)(=O)c1ccc(C(=O)C2CCN(C(=O)c3ccc(C(=O)NC4CCN(Cc5ccc(N6CCCC6)cc5)CC4)nc3)CC2)cc1 [Compound 233, 5-(4-(4-(methylsulfonyl)benzoyl)piperidine-1-carbonyl)-N-(1-(4-(pyrrolidin-1-yl)benzyl)piperidin-4-yl)picolinamide] | > 6.30

Other lines, results leading:

pEC50 | Structure (SMILES)
> 6.30 | CS(=O)(=O)c1ccc(OC2CCN(C(=O)c3ccc(C(=O)NC4CCN(Cc5cc(F)cc(F)c5)CC4)nc3)CC2)cc1 [Compound 203, N-(1-(3,5-difluorobenzyl)piperidin-4-yl)-5-(4-(4-(methylsulfonyl)phenoxy)piperidine-1-carbonyl)picolinamide]
> 6.30 | COc1ccc(C(=O)C2CCN(C(=O)c3cnc(C(=O)Nc4ccc(Oc5ccc(F)cc5)nc4)cn3)CC2)cc1 [Compound 204, N-(6-(4-fluorophenoxy)pyridin-3-yl)-5-(4-(4-methoxybenzoyl)piperidine-1-carbonyl)pyrazine-2-carboxamide]
> 6.30 | O=C(Nc1ccc(Oc2ccc(F)cc2)nc1)c1cnc(C(=O)N2CCC(Oc3ccc(C(F)(F)F)cc3)CC2)cn1 [Compound 205, N-(6-(4-fluorophenoxy)pyridin-3-yl)-5-(4-(4-(trifluoromethyl)phenoxy)piperidine-1-carbonyl)pyrazine-2-carboxamide]
> 6.30 | O=C(Nc1ccc(Oc2ccc(F)cc2)nc1)c1cnc(C(=O)N2CCC(C(=O)c3ccc(F)cc3F)CC2)cn1 [Compound 206, 5-(4-(2,4-difluorobenzoyl)piperidine-1-carbonyl)-N-(6-(4-fluorophenoxy)pyridin-3-yl)pyrazine-2-carboxamide]
> 6.30 | CS(=O)(=O)c1ccc(OC2CCN(C(=O)c3cnc(C(=O)Nc4ccc(Oc5ccc(F)cc5)nc4)cn3)CC2)cc1 [Compound 207, N-(6-(4-fluorophenoxy)pyridin-3-yl)-5-(4-(4-(methylsulfonyl)phenoxy)piperidine-1-carbonyl)pyrazine-2-carboxamide]
> 6.30 | CS(=O)(=O)c1ccc(OC2CCN(C(=O)c3ccc(C(=O)NC4CCN(Cc5ccc(N6CCCC6)cc5)CC4)nc3)CC2)cc1 [Compound 208, 5-(4-(4-(methylsulfonyl)phenoxy)piperidine-1-carbonyl)-N-(1-(4-(pyrrolidin-1-yl)benzyl)piperidin-4-yl)picolinamide]
> 6.30 | N#Cc1ccc(CN2CCC(NC(=O)c3ccc(C(=O)N4CC(Oc5ccc(C#N)cc5)C4)cn3)CC2)cc1 [Compound 209, N-(1-(4-cyanobenzyl)piperidin-4-yl)-5-(3-(4-cyanophenoxy)azetidine-1-carbonyl)picolinamide]
> 6.30 | COc1ccc(C(=O)C2CCN(C(=O)c3cnc(C(=O)NC4CCN(Cc5ccc(C#N)cc5)CC4)cn3)CC2)cc1 [Compound 211, N-(1-(4-cyanobenzyl)piperidin-4-yl)-5-(4-(4-methoxybenzoyl)piperidine-1-carbonyl)pyrazine-2-carboxamide]
> 6.30 | N#Cc1ccc(CN2CCC(NC(=O)c3cnc(C(=O)N4CCC(Oc5ccc(C(F)(F)F)cc5)CC4)cn3)CC2)cc1 [Compound 212, N-(1-(4-cyanobenzyl)piperidin-4-yl)-5-(4-(4-(trifluoromethyl)phenoxy)piperidine-1-carbonyl)pyrazine-2-carboxamide]
> 6.30 | CS(=O)(=O)c1ccc(CN2CCC(NC(=O)c3ccc(C(=O)N4CCC(C(=O)c5ccc(F)cc5F)CC4)nc3)CC2)cc1 [Compound 213, 6-(4-(2,4-difluorobenzoyl)piperidine-1-carbonyl)-N-(1-(4-(methylsulfonyl)benzyl)piperidin-4-yl)nicotinamide]
> 6.30 | CS(=O)(=O)c1ccc(OC2CCN(C(=O)c3cnc(C(=O)NC4CCN(Cc5ccc(C#N)cc5)CC4)cn3)CC2)cc1 [Compound 218, N-(1-(4-cyanobenzyl)piperidin-4-yl)-5-(4-(4-(methylsulfonyl)phenoxy)piperidine-1-carbonyl)pyrazine-2-carboxamide]
> 6.30 | N#Cc1ccc(CN2CCC(NC(=O)c3cnc(C(=O)N4CCC(C(=O)c5ccc(N6CCCC6)cc5)CC4)cn3)CC2)cc1 [Compound 219, N-(1-(4-cyanobenzyl)piperidin-4-yl)-5-(4-(4-(pyrrolidin-1-yl)benzoyl)piperidine-1-carbonyl)pyrazine-2-carboxamide]
> 6.30 | CN1CCN(c2ccc(C(=O)C3CCN(C(=O)c4cnc(C(=O)NC5CCN(Cc6ccc(C#N)cc6)CC5)cn4)CC3)cc2)CC1 [Compound 220, N-(1-(4-cyanobenzyl)piperidin-4-yl)-5-(4-(4-(4-methylpiperazin-1-yl)benzoyl)piperidine-1-carbonyl)pyrazine-2-carboxamide]
> 6.30 | CS(=O)(=O)c1ccc(C(=O)C2CCN(C(=O)c3ccc(C(=O)Nc4ccc(Oc5ccc(F)cc5)nc4)cn3)CC2)cc1 [Compound 224, N-(6-(4-fluorophenoxy)pyridin-3-yl)-6-(4-(4-(methylsulfonyl)benzoyl)piperidine-1-carbonyl)nicotinamide]
> 6.30 | CS(=O)(=O)c1ccc(C(=O)C2CCN(C(=O)c3ccc(C(=O)NC4CCN(Cc5ccc(F)cc5)CC4)nc3)CC2)cc1 [Compound 225, N-(1-(4-fluorobenzyl)piperidin-4-yl)-5-(4-(4-(methylsulfonyl)benzoyl)piperidine-1-carbonyl)picolinamide]
> 6.30 | CS(=O)(=O)c1ccc(OC2CCN(C(=O)c3ccc(C(=O)NC4CCN(Cc5ccc(F)cc5)CC4)nc3)CC2)cc1 [Compound 226, N-(1-(4-fluorobenzyl)piperidin-4-yl)-5-(4-(4-(methylsulfonyl)phenoxy)piperidine-1-carbonyl)picolinamide]
> 6.30 | CS(=O)(=O)c1ccc(OC2CCN(C(=O)c3ccc(C(=O)NC4CCN(Cc5ccc(C#N)cc5)CC4)nc3)CC2)cc1 [Compound 227, N-(1-(4-cyanobenzyl)piperidin-4-yl)-5-(4-(4-(methylsulfonyl)phenoxy)piperidine-1-carbonyl)picolinamide]

Source: patent publication US9663496B2, “AMPK-activating heterocyclic compounds and methods for using the same” (Rigel Pharmaceuticals, Inc., priority 2010, dated 2017)
